Experimental data as given in paper PMC10321576, “Cyclic peptides target the aromatic cage of a PHD-finger reader domain to modulate epigenetic protein function” (Chemical Science, 2023).
Peptide text beside a SMILES is read from it.

Molecular target: T1, KDM7B PHD-finger (Homo sapiens, UniProt Q9UPP1)
T1 construct: KDM7B 1-66; His-tag (C); made in house
T1 sequence (Q9UPP1 1-66 isoform Q9UPP1-2): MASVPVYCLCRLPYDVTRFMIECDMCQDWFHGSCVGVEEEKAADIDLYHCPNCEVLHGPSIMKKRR
Experiment: Protein NMR 1H-15N HSQC chemical shift perturbation
Format: binding
Description: To better elucidate OC9 interactions at a single residue level, we conducted protein NMR studies using isotopically labelled PHD-finger.[48] Comparison of ^1H–^15N HSQC spectra for isotopically labelled apo and OC9-bound protein (Fig. 4a), independently assigned using ^13C,^15N 3D experiments (Fig. S21, NMR ESI ^†), identified 24 out of 66 protein residues with significant (standard deviation, s > 1) chemical shift perturbation (CSP, Δδ) of their backbone amides (Fig. 4b).
(a) ^1H–^15N HSQC of KDM7B PHD-finger in the apo (black) or bound forms with OC9 (purple, 1 : 1) or H3_1–21K4me3 (green, 3 : 1). (b) ^1H and ^15N chemical shift changes for apo vs. + OC9 were combined and weighted to give chemical shift perturbation (CSP) (Δδ) values. Standard deviation (σ) of Δδ are indicated (>1 pink, >2 purple). (c) TALOS+ predicts similar secondary structure elements in apo and OC9-bound solution protein complexes (light grey) to those found in PDB ID 3KV4 (dark grey). […] (e) Shielded ^1H-NMR signals centred around −0.5 ppm belonging to the OC9 V10 γ-methyl groups are observed in some OC9–PHD complexes, but not in apo protein, or complexes with OC9 V10A and OC9 V10DV. The V10^OC9 γ-methyl signals have NOE interactions (black semi-circles) with the W29^PHD indole, which itself is shielded upon binding of OC9 (indicated by ΔδH values).

CSP Ala2 (residue Ala2 amide 1H-15N, Free PHD vs PHD+peptide): 0.0068
CSP Ala2, OC9 vs OC9 L3A (residue Ala2 amide, PHD+OC9 vs PHD+OC9 L3A): 0.0102
CSP Ala42 (residue Ala42 amide 1H-15N, Free PHD vs PHD+peptide): 0.4335
CSP Ala42, OC9 vs OC9 L3A (residue Ala42 amide, PHD+OC9 vs PHD+OC9 L3A): 0.0214
CSP Ala43 (residue Ala43 amide 1H-15N, Free PHD vs PHD+peptide): 0.4214
CSP Ala43, OC9 vs OC9 L3A (residue Ala43 amide, PHD+OC9 vs PHD+OC9 L3A): 0.0343
CSP Arg11 (residue Arg11 amide 1H-15N, Free PHD vs PHD+peptide): 0.0169
CSP Arg11, OC9 vs OC9 L3A (residue Arg11 amide, PHD+OC9 vs PHD+OC9 L3A): 0.0087
CSP Arg18 (residue Arg18 amide 1H-15N, Free PHD vs PHD+peptide): 0.1337
CSP Arg18, OC9 vs OC9 L3A (residue Arg18 amide, PHD+OC9 vs PHD+OC9 L3A): 0.0146
CSP Arg65 (residue Arg65 amide 1H-15N, Free PHD vs PHD+peptide): 0.0010
CSP Arg65, OC9 vs OC9 L3A (residue Arg65 amide, PHD+OC9 vs PHD+OC9 L3A): 0.0115
CSP Arg66 (residue Arg66 amide 1H-15N, Free PHD vs PHD+peptide): 0.0045
CSP Arg66, OC9 vs OC9 L3A (residue Arg66 amide, PHD+OC9 vs PHD+OC9 L3A): 0.0034
CSP Asn52 (residue Asn52 amide 1H-15N, Free PHD vs PHD+peptide): 0.0619
CSP Asn52, OC9 vs OC9 L3A (residue Asn52 amide, PHD+OC9 vs PHD+OC9 L3A): 0.0178
CSP Asp15 (residue Asp15 amide 1H-15N, Free PHD vs PHD+peptide): 0.2511
CSP Asp15, OC9 vs OC9 L3A (residue Asp15 amide, PHD+OC9 vs PHD+OC9 L3A): 0.0129
CSP Asp24 (residue Asp24 amide 1H-15N, Free PHD vs PHD+peptide): 0.0765
CSP Asp24, OC9 vs OC9 L3A (residue Asp24 amide, PHD+OC9 vs PHD+OC9 L3A): 0.0087
CSP Asp28 (residue Asp28 amide 1H-15N, Free PHD vs PHD+peptide): 0.1850
CSP Asp28, OC9 vs OC9 L3A (residue Asp28 amide, PHD+OC9 vs PHD+OC9 L3A): 0.0277
CSP Asp44 (residue Asp44 amide 1H-15N, Free PHD vs PHD+peptide): 0.1299
CSP Asp44, OC9 vs OC9 L3A (residue Asp44 amide, PHD+OC9 vs PHD+OC9 L3A): 0.0065
CSP Asp46 (residue Asp46 amide 1H-15N, Free PHD vs PHD+peptide): 0.1937
CSP Asp46, OC9 vs OC9 L3A (residue Asp46 amide, PHD+OC9 vs PHD+OC9 L3A): 0.0214
CSP Cys8 (residue Cys8 amide 1H-15N, Free PHD vs PHD+peptide): 0.2230
CSP Cys8, OC9 vs OC9 L3A (residue Cys8 amide, PHD+OC9 vs PHD+OC9 L3A): 0.0115
CSP Cys10 (residue Cys10 amide 1H-15N, Free PHD vs PHD+peptide): 0.0457
CSP Cys10, OC9 vs OC9 L3A (residue Cys10 amide, PHD+OC9 vs PHD+OC9 L3A): 0.0102
CSP Cys23 (residue Cys23 amide 1H-15N, Free PHD vs PHD+peptide): 0.1510
CSP Cys23, OC9 vs OC9 L3A (residue Cys23 amide, PHD+OC9 vs PHD+OC9 L3A): 0.0210
CSP Cys26 (residue Cys26 amide 1H-15N, Free PHD vs PHD+peptide): 0.1657
CSP Cys26, OC9 vs OC9 L3A (residue Cys26 amide, PHD+OC9 vs PHD+OC9 L3A): 0.0115
CSP Cys34 (residue Cys34 amide 1H-15N, Free PHD vs PHD+peptide): 0.0274
CSP Cys34, OC9 vs OC9 L3A (residue Cys34 amide, PHD+OC9 vs PHD+OC9 L3A): 0.0065
CSP Cys50 (residue Cys50 amide 1H-15N, Free PHD vs PHD+peptide): 0.0600
CSP Cys50, OC9 vs OC9 L3A (residue Cys50 amide, PHD+OC9 vs PHD+OC9 L3A): 0.0129
CSP Cys53 (residue Cys53 amide 1H-15N, Free PHD vs PHD+peptide): 0.0573
CSP Cys53, OC9 vs OC9 L3A (residue Cys53 amide, PHD+OC9 vs PHD+OC9 L3A): 0.0065
CSP Gln27 (residue Gln27 amide 1H-15N, Free PHD vs PHD+peptide): 0.1418
CSP Gln27, OC9 vs OC9 L3A (residue Gln27 amide, PHD+OC9 vs PHD+OC9 L3A): 0.0110
CSP Glu22 (residue Glu22 amide 1H-15N, Free PHD vs PHD+peptide): 0.1432
CSP Glu22, OC9 vs OC9 L3A (residue Glu22 amide, PHD+OC9 vs PHD+OC9 L3A): 0.0223
CSP Glu38 (residue Glu38 amide 1H-15N, Free PHD vs PHD+peptide): 0.1564
CSP Glu38, OC9 vs OC9 L3A (residue Glu38 amide, PHD+OC9 vs PHD+OC9 L3A): 0.0388
CSP Glu39 (residue Glu39 amide 1H-15N, Free PHD vs PHD+peptide): 0.2246
CSP Glu39, OC9 vs OC9 L3A (residue Glu39 amide, PHD+OC9 vs PHD+OC9 L3A): 0.0231
CSP Glu40 (residue Glu40 amide 1H-15N, Free PHD vs PHD+peptide): 0.1065
CSP Glu40, OC9 vs OC9 L3A (residue Glu40 amide, PHD+OC9 vs PHD+OC9 L3A): 0.0110
CSP Glu54 (residue Glu54 amide 1H-15N, Free PHD vs PHD+peptide): 0.0548
CSP Glu54, OC9 vs OC9 L3A (residue Glu54 amide, PHD+OC9 vs PHD+OC9 L3A): 0.0034
CSP Gly32 (residue Gly32 amide 1H-15N, Free PHD vs PHD+peptide): 0.1585
CSP Gly32, OC9 vs OC9 L3A (residue Gly32 amide, PHD+OC9 vs PHD+OC9 L3A): 0.0220
CSP Gly36 (residue Gly36 amide 1H-15N, Free PHD vs PHD+peptide): 0.1019
CSP Gly36, OC9 vs OC9 L3A (residue Gly36 amide, PHD+OC9 vs PHD+OC9 L3A): 0.0055
CSP Gly58 (residue Gly58 amide 1H-15N, Free PHD vs PHD+peptide): 0.0491
CSP Gly58, OC9 vs OC9 L3A (residue Gly58 amide, PHD+OC9 vs PHD+OC9 L3A): 0.0055
CSP His31 (residue His31 amide 1H-15N, Free PHD vs PHD+peptide): 0.2104
CSP His31, OC9 vs OC9 L3A (residue His31 amide, PHD+OC9 vs PHD+OC9 L3A): 0.0065
CSP His49 (residue His49 amide 1H-15N, Free PHD vs PHD+peptide): 0.0983
SMILES: CC(C)[C@@H]1NC(=O)[C@H](CO)NC(=O)[C@@H]2CCCN2C(=O)[C@H](Cc2ccc(O)cc2)NC(=O)[C@@H]2CCCN2C(=O)[C@H](Cc2c[nH]cn2)NC(=O)[C@H]([C@@H](C)O)NC(=O)[C@H](C)NC(=O)[C@H](Cc2ccc(O)cc2)NC(=O)[C@H](Cc2ccc(O)cc2)NC(=O)CSC[C@@H](C(N)=O)NC(=O)[C@H]([C@@H](C)O)NC(=O)[C@H](CCCNC(=N)N)NC(=O)[C@H](Cc2ccccc2)NC1=O [L3A] (HELM PEPTIDE1{[O=C(C[*:3])[*:2]].Y.Y.A.T.H.P.Y.P.S.V.F.R.T.C.[am]}$PEPTIDE1,PEPTIDE1,1:R3-15:R3$$$V2.0; C-terminus assumed)
